This note sets out measurements from ChEMBL document CHEMBL1201862, “PubChem BioAssay data set” (2004).

A short description of test [1]: A2780 ovarian cancer cell cytotoxicity, dose response, cytotoxicity control, plate reader, dry powder samples (AID 743046). The format is functional, cell-based.
Another test concerns the target Paired box protein Pax-8 (Homo sapiens, UniProt Q06710). Kind of test: inhibitors of PAX8-driven TPO luciferase reporter, dose response, RMG-I cells, cherry-pick (AID 687027).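 Also: luciferase reporter driven by Pax8 target thyroperoxidase promoter measured by SteadyGlo luminescence.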 The format is functional, cell-based.
Test [2] is described as follows: cytotoxicity in OVCAR8 ovarian cancer cells, dose response, PAX8 project, cell-based, plate reader, dry powder samples (AID 743197). The format is functional. Particulars: OVCAR-8.
The nature of test [3]: NIH:OVCAR-3 ovarian cancer cell cytotoxicity, dose response, PAX8 inhibitor project, plate reader, dry powder samples (AID 743044). The format is functional, cell-based.
Test [4] deals with Mitogen-activated protein kinase 10 (Homo sapiens, UniProt P53779). Nature of the test: Dose response biochemical screening assay for inhibitors of c-Jun N-Terminal Kinase 3 (JNK3). [Related pubchem assays: 746 ].
Test [5] can be described thus: P. falciparum Dd2 growth inhibitors, dose response, SYBR Green, dry powder samples, set 9 (AID 1159568). The format is functional, cell-based.
A short description of test [6]: P. falciparum Dd2 growth inhibitors, dose response, SYBR Green, cherry-picked samples (AID 1159567). In kind it is functional, cell-based.
Test [7] can be described thus: P. falciparum ATP4 D1247Y mutant growth inhibitors, dose response, NITD609-resistant line, SYBR Green, dry powder (AID 1159571).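 Also: parasites synchronized at ring stage by sorbitol before testing.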 In kind it is functional, cell-based.
A short description of test [8]: P. falciparum Dd2 growth inhibitors, dose response, SYBR Green, dry powder samples (AID 1159566).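 Also: potency for growth inhibition with lower SYBR green DNA signal.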 In kind it is functional, cell-based.
Test [9] in a line: Plasmodium falciparum Dd2 Sybr green parasite growth Measured in Cell-Based and Microorganism Combination System Using Plate Reader - 2153-01_Inhibitor_Dose_DryPowder_Activity_Set3. The format is functional.
A short description of test [10]: P. falciparum 3D7-ScDHODH growth inhibitors, dose response, SYBR Green, dry powder samples (AID 1159570).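 Also: parasite growth measured after 72 hours of compound exposure.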 In kind it is functional, cell-based.
A short description of test [11]: IOSE-T80 ovarian epithelial cell cytotoxicity, dose response, cytotoxicity control for PAX8 inhibitor project, plate reader, dry powder samples (AID 743045). The format is functional, cell-based.
Test [12] is described as follows: IGROV1 ovarian cancer cell cytotoxicity, dose response, PAX8 inhibitor project, plate reader, dry powder samples (AID 743043). The settings on record: IGROV-1. In kind it is functional, cell-based.
A short description of test [13]: non-specific cell cytotoxicity, dose response, cytotoxicity control for PAX8 inhibitor project, plate reader, dry powder samples (AID 743021). In kind it is functional, cell-based.
Test [14] can be described thus: Jurkat T cell cytotoxicity, dose response, cytotoxicity control for P. falciparum gametocyte viability project, luminescence (AID 1117277).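 Also: potency reflects loss of cellular ATP meaning fewer viable cells.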 In kind it is functional, cell-based.
Test [15] in a line: P. falciparum late gametocyte killing, dose response, luminescence (AID 1117278).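 Also: gametocytes exposed to compound for 24 hours.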 In kind it is functional, cell-based.
Test [16] can be described thus: HepG2 cell cytotoxicity, dose response, cytotoxicity control, cherry-picked samples (AID 1159577). In kind it is functional, cell-based.
The nature of test [17]: HepG2 cell cytotoxicity, dose response, cytotoxicity control, plate reader, dry powder samples (AID 1159569).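 Also: inhibitor potency with signal falling toward the positive control level.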 The format is functional, cell-based.
The target in test [18] is Metabotropic glutamate receptor 5 (Rattus norvegicus, UniProt P31424). Nature of the test: Identification of a glycine sulfonamide based non-MPEP site positive allosteric potentiator (PAM) of mGlu5 (calcium_assay). In kind it is functional.
Test [19] is described as follows: Luminescent dose response cell-based high throughput screening assay for inhibitors of the Janus kinase 2 mutant JAK2V617F. [Related pubchem assays: 1446 (Primary screen.), 1521 (Confirmation assay.), 1486 (Counter screen.)]. In kind it is functional.
Test [20] in a line: Luminescence Cell-Based Dose Response HTS to Identify Activators of Luciferase Translation or Activity in H4 […] Cells. [Related pubchem assays: 1829 (Project Summary), 1814 (Primary HTS)]. In kind it is functional.
Test [21] in a line: Luminescence Cell-Based Dose Confirmation HTS to Identify Activators of 5'UTR Stem-Loop Driven Alpha-Synuclein mRNA Translation in H4 Neuroglioblastoma Cells. [Related pubchem assays: 1829 (Project Summary), 1814 (Primary HTS)]. The format is functional.
A further test concerns H4. Kind of test: Luminescence Cell-Based Dose Response HTS to Identify Activators of 5'UTR Stem-Loop Driven Prion Protein mRNA Translation in H4 Neuroglioblastoma Cells. [Related pubchem assays: 1829 (Project Summary), 1814 (Primary HTS)]. In kind it is functional. The settings on record: Homo sapiens.
The test system of test [22] is Vero. Nature of the test: host cell cytotoxicity of antiviral hits, dose response, cytotoxicity control for West Nile virus antiviral project, secondary assay (AID 1650). The format is functional. The settings on record: Chlorocebus sabaeus.
In test [23] the target is T1, Ubiquitin-conjugating enzyme E2 N (Homo sapiens, UniProt P61088).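 Also: Dose-response confirmation in a TR-FRET assay detecting UBC13-driven polyubiquitin chain formation, inhibition measured.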
T1 sequence (P61088 whole entry): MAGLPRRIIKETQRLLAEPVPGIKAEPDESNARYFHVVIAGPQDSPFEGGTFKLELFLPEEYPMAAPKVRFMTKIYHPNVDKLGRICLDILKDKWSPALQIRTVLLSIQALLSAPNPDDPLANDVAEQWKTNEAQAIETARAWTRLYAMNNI
The format is functional.

Test [24] concerns Vero. Kind of test: West Nile virus antiviral activity, cell-based, CPE readout (AID 1621). The format is functional. Particulars: Chlorocebus sabaeus.
Test [25] has as its target T2, Microphthalmia-associated transcription factor (Homo sapiens, UniProt O75030).
T2 sequence (O75030 whole entry): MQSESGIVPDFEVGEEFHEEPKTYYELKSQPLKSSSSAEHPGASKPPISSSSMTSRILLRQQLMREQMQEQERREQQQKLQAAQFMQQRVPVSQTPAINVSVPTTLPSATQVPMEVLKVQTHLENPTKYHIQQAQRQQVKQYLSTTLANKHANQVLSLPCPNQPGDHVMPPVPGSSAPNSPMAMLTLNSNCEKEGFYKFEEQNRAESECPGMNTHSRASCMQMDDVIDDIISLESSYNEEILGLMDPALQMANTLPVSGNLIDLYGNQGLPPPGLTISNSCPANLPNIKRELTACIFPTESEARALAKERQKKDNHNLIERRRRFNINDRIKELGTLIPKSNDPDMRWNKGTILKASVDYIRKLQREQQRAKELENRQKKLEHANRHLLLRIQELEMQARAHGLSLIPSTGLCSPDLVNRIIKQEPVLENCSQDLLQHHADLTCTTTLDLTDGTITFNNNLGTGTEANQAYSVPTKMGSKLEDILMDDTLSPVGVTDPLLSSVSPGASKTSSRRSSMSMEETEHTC
Nature of the test: TRPM1 promoter luciferase signal decrease, dose response, MITF inhibitor project, cell-based, SK-MEL-5, cherry-picked, set 3 (AID 493073).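 Also: SK-MEL-5 melanoma cells with luciferase driven by the MITF target TRPM1 promoter.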 In kind it is functional.

Calls of active or inactive are those of the source.

Mitogen-activated protein kinase 10, sequence (P53779 whole entry): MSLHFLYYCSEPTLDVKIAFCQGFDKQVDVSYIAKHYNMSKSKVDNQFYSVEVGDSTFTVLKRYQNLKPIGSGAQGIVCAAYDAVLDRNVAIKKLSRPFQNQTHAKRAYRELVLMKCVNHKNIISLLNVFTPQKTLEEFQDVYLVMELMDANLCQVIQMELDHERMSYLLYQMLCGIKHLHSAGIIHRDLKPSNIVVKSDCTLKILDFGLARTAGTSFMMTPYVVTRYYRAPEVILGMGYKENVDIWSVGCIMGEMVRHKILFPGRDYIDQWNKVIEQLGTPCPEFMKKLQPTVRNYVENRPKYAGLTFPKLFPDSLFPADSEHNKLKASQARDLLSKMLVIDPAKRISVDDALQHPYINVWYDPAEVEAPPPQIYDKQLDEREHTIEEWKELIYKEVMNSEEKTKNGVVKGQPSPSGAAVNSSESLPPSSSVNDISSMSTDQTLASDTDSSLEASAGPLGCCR
Paired box protein Pax-8, sequence (Q06710 whole entry): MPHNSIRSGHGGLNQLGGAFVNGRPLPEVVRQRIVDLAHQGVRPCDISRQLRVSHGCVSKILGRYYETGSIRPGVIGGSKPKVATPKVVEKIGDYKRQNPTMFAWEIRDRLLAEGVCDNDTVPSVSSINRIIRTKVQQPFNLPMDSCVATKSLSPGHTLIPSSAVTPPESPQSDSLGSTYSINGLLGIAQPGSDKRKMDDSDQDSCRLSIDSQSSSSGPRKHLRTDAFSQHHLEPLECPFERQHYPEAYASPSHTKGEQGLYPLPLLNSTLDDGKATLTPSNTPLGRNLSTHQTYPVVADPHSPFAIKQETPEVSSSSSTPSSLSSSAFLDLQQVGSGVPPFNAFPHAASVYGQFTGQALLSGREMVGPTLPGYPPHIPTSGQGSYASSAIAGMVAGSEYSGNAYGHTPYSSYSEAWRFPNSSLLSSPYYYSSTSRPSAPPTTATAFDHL
Metabotropic glutamate receptor 5, sequence (P31424 whole entry): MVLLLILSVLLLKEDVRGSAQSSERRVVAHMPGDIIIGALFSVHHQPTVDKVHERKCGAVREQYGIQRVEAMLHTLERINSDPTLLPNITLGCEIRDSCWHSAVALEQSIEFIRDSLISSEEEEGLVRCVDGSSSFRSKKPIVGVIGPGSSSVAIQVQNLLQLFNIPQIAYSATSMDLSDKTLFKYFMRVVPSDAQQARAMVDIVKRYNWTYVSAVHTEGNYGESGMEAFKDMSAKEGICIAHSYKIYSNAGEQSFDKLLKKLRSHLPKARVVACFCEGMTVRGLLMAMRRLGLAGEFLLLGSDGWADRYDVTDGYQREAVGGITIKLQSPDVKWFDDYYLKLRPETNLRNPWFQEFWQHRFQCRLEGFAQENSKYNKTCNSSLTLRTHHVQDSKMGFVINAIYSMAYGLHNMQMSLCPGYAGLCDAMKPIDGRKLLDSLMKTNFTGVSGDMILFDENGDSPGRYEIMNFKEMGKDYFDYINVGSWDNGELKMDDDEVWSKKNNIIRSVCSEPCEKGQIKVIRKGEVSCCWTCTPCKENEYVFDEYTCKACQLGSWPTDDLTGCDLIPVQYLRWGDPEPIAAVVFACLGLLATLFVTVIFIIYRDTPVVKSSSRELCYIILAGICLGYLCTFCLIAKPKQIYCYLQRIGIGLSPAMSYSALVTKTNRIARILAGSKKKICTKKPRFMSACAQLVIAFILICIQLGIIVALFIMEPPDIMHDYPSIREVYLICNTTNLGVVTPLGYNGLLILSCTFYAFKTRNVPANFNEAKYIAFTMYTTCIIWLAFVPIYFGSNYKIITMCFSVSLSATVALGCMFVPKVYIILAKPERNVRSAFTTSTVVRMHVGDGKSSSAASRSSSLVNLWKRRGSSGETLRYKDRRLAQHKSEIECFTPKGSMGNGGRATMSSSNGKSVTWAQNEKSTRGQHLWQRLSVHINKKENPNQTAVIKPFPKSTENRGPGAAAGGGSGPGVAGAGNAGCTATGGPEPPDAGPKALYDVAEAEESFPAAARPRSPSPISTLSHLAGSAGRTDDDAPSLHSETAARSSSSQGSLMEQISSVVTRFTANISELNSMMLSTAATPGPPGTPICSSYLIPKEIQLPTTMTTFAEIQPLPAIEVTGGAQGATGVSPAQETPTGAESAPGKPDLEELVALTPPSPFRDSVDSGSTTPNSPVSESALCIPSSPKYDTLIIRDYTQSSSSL

Consider `C[C@@H]1CN([C@@H](C)CO)C(=O)c2cc(NC(=O)Nc3ccc(F)cc3)ccc2O[C@@H](C)CCCCO[C@@H]1CN(C)Cc1ccc(C(F)(F)F)cc1`, for which the AC50 (in general, the concentration giving half of the maximal activity seen) is 0.363 µM (active) in test [1], 9.46 µM (active) on Paired box protein Pax-8, 39.9 µM (active) in test [2] and 33.6 µM (active) in test [3].
`O=C(c1cccc2c1-c1ccccc1/C2=N/O)N1CCCCC1`: the IC50 (in general, the midpoint of a concentration-inhibition curve) in [4] is listed as 40.7 µM (not active).
`CCCNC(=O)N1[C@H](C#N)[C@H](c2ccc(C#Cc3cccc(F)c3)cc2)[C@H]1CO`: the AC50 in test [5] was 0.00951 µM (active); in test [6] it was < 0.3 µM (active); in [7] it was 0.00678 µM (active); in test [8] it was 0.00355 µM (active); in test [9] it was 0.0243 µM (active); in test [10], 8.92 µM (active).
With `COc1ccc(NC(=O)N2C[C@@H]3N[C@H](C2)[C@@H]3c2ccc(-c3ccc(OC)cc3)cc2)cc1`, the AC50 is 23.3 µM (active) in test [11]; 13.7 µM (active) on Paired box protein Pax-8; 48.5 µM (active) in test [2]; 46.6 µM (active) in [3]; 26.6 µM (active) in [12]; 32.5 µM (active) in [13].
Take `CC(=O)c1cccc(CN2CCN(C3CCCCC3)C(CCO)C2)c1` (stereo unspecified): the IC50 is > 83.3 µM (inactive) in test [14] and > 109 µM (inactive) in [15].
Take `COc1ccc(-c2ccc([C@H]3[C@@H](C#N)N(C(=O)NC4CCCC4)[C@@H]3CO)cc2)cc1`: the AC50 in [16] is > 39 µM (inactive); in test [6], < 0.3 µM (active); in [7] it was 0.248 µM (active); in test [8], 0.23 µM (active); in test [17], 81.4 µM (active); in test [9] it was 0.208 µM (active). In test [10], the AC50 is 5.29 µM (active).
Regarding `CC(C(=O)Nc1ccc(Cl)cn1)N(c1ccccc1Cl)S(C)(=O)=O` (stereo unspecified), the EC50 (usually the concentration that produces a half-maximal response) in [18] is > 30 µM (inactive).
For `CC(C)C1C(C#N)=C(N)Oc2[nH]nc(-c3ccc4ccccc4c3)c21` (stereo unspecified), the IC50 in [19] was 2.41 µM (active).
In the case of `O=C(Cn1cnc2ccccc2c1=O)Nc1ccc(-c2nnc3n2CCCCC3)cc1`, the IC50 in test [4] is 29.5 µM (not active).
Regarding `CCCCN(CC)CCCNC(=O)c1cc2c(=O)n(CC)c3ccccc3c2s1`, the EC50 is 13.6 µM (active) in test [20], 73.6 µM (active) in test [21] and 11.7 µM (active) in the test on H4. For the same molecule, in the test on Vero [22], the CC50 – broadly, the concentration that lowers cell viability or growth by half – was 24.3 µM (active). Moreover, the IC50 is > 20 µM (inactive) in test [23] and 22.7 µM (active) in the test with Vero [24]. For the same molecule, the AC50 in test [25] is 21.6 µM (active).
